# Assays:
# Type in all cases: functional
# TK-10 = experiment: Anticancer activity against human TK10 cells assessed cell growth at 10 uM after 48 hrs by sulforhodamine B assay relative to control
# SK-MEL-5 = experiment: Anticancer activity against human SK-MEL-5 cells assessed cell growth at 10 uM after 48 hrs by sulforhodamine B assay relative to control
# SF-268 = experiment: Anticancer activity against human SF268 cells assessed cell growth at 10 uM after 48 hrs by sulforhodamine B assay relative to control
# DU-145 = experiment: Anticancer activity against human DU145 cells assessed cell growth at 10 uM after 48 hrs by sulforhodamine B assay relative to control
# OVCAR-4 = experiment: Anticancer activity against human OVCAR4 cells assessed cell growth at 10 uM after 48 hrs by sulforhodamine B assay relative to control
# [1] = Anticancer activity against human RPMI8266 cells assessed cell growth at 10 uM after 48 hrs by sulforhodamine B assay relative to control
# NCI/ADR-RES = experiment: Anticancer activity against human NCI/ADR-RES cells assessed cell growth at 10 uM after 48 hrs by sulforhodamine B assay relative to control
# NCI-H23 = experiment: Anticancer activity against human NCI-H23 cells assessed cell growth at 10 uM after 48 hrs by sulforhodamine B assay relative to control
# UO-31 = experiment: Anticancer activity against human UO31 cells assessed cell growth at 10 uM after 48 hrs by sulforhodamine B assay relative to control
# SW-620 = experiment: Anticancer activity against human SW620 cells assessed cell growth at 10 uM after 48 hrs by sulforhodamine B assay relative to control
# Malme-3M = experiment: Anticancer activity against human MALME-3M cells assessed cell growth at 10 uM after 48 hrs by sulforhodamine B assay relative to control
# T47D = experiment: Anticancer activity against human T47D cells assessed cell growth at 10 uM after 48 hrs by sulforhodamine B assay relative to control
# MDA-MB-468 = experiment: Anticancer activity against human MDA-MB-468 cells assessed cell growth at 10 uM after 48 hrs by sulforhodamine B assay relative to control
# MCF7 = experiment: Anticancer activity against human MCF7 cells assessed cell growth at 10 uM after 48 hrs by sulforhodamine B assay relative to control
# HCT-116 = experiment: Anticancer activity against human HCT116 cells assessed cell growth at 10 uM after 48 hrs by sulforhodamine B assay relative to control
# CCRF-CEM = experiment: Anticancer activity against human CCRF-CEM cells assessed cell growth at 10 uM after 48 hrs by sulforhodamine B assay relative to control
# MDA-MB-231 = experiment: Anticancer activity against human MDA-MB-231 cells assessed cell growth at 10 uM after 48 hrs by sulforhodamine B assay relative to control
# HOP-62 = experiment: Anticancer activity against human HOP62 cells assessed cell growth at 10 uM after 48 hrs by sulforhodamine B assay relative to control
# NCI-H460 = experiment: Anticancer activity against human NCI-H460 cells assessed cell growth at 10 uM after 48 hrs by sulforhodamine B assay relative to control
# IGROV-1 = experiment: Anticancer activity against human IGROV1 cells assessed cell growth at 10 uM after 48 hrs by sulforhodamine B assay relative to control
# NCI-H522 = experiment: Anticancer activity against human NCI-H522 cells assessed cell growth at 10 uM after 48 hrs by sulforhodamine B assay relative to control
# HT-29 = experiment: Anticancer activity against human HT-29 cells assessed cell growth at 10 uM after 48 hrs by sulforhodamine B assay relative to control
# SK-MEL-28 = experiment: Anticancer activity against human SK-MEL-28 cells assessed cell growth at 10 uM after 48 hrs by sulforhodamine B assay relative to control
# SK-MEL-2 = experiment: Anticancer activity against human SK-MEL-2 cells assessed cell growth at 10 uM after 48 hrs by sulforhodamine B assay relative to control
# LOX IMVI = experiment: Anticancer activity against human LOXIMVI cells assessed cell growth at 10 uM after 48 hrs by sulforhodamine B assay relative to control
# PC-3 = experiment: Anticancer activity against human PC3 cells assessed cell growth at 10 uM after 48 hrs by sulforhodamine B assay relative to control
# NCI-H226 = experiment: Anticancer activity against human NCI-H226 cells assessed cell growth at 10 uM after 48 hrs by sulforhodamine B assay relative to control
# SNB-19 = experiment: Anticancer activity against human SNB19 cells assessed cell growth at 10 uM after 48 hrs by sulforhodamine B assay relative to control
# SNB-75 = experiment: Anticancer activity against human SNB75 cells assessed cell growth at 10 uM after 48 hrs by sulforhodamine B assay relative to control
# UACC-257 = experiment: Anticancer activity against human UACC257 cells assessed cell growth at 10 uM after 48 hrs by sulforhodamine B assay relative to control
# HCC 2998 = experiment: Anticancer activity against human HCC2998 cells assessed cell growth at 10 uM after 48 hrs by sulforhodamine B assay relative to control
# K562 = experiment: Anticancer activity against human K562 cells assessed cell growth at 10 uM after 48 hrs by sulforhodamine B assay relative to control
# M14 = experiment: Anticancer activity against human M14 cells assessed cell growth at 10 uM after 48 hrs by sulforhodamine B assay relative to control
# HOP-92 = experiment: Anticancer activity against human HOP92 cells assessed cell growth at 10 uM after 48 hrs by sulforhodamine B assay relative to control
# OVCAR-5 = experiment: Anticancer activity against human OVCAR5 cells assessed cell growth at 10 uM after 48 hrs by sulforhodamine B assay relative to control
# ACHN = experiment: Anticancer activity against human ACHN cells assessed cell growth at 10 uM after 48 hrs by sulforhodamine B assay relative to control
# MDA-MB-435 = experiment: Anticancer activity against human MDA-MB-435 cells assessed cell growth at 10 uM after 48 hrs by sulforhodamine B assay relative to control
# UACC-62 = experiment: Anticancer activity against human UACC62 cells assessed cell growth at 10 uM after 48 hrs by sulforhodamine B assay relative to control
# RXF 393 = experiment: Anticancer activity against human RXF393 cells assessed cell growth at 10 uM after 48 hrs by sulforhodamine B assay relative to control
# CAKI-1 = experiment: Anticancer activity against human Caki1 cells assessed cell growth at 10 uM after 48 hrs by sulforhodamine B assay relative to control
# SR = experiment: Anticancer activity against human SR cells assessed cell growth at 10 uM after 48 hrs by sulforhodamine B assay relative to control
# SK-OV-3 = experiment: Anticancer activity against human SKOV3 cells assessed cell growth at 10 uM after 48 hrs by sulforhodamine B assay relative to control
# HL-60(TB) = experiment: Anticancer activity against human HL-60(TB) cells assessed cell growth at 10 uM after 48 hrs by sulforhodamine B assay relative to control
smiles,measurement,setting,value
CCCCCCCCCCCCCCCCCC[n+]1ccn(C)c1.O=S(=O)([N-]S(=O)(=O)C(F)(F)F)C(F)(F)F,Activity,TK-10,-72.43%
same,Activity,SK-MEL-5,-74.13%
same,Activity,SF-268,-45.26%
same,Activity,DU-145,-8.63%
same,Activity,OVCAR-4,-13.29%
same,Activity,[1],75.58%
same,Activity,NCI/ADR-RES,-7.98%
same,Activity,NCI-H23,-44.29%
same,Activity,UO-31,-66.09%
same,Activity,SW-620,-38.1%
same,Activity,Malme-3M,-49.87%
same,Activity,T47D,16.98%
same,Activity,MDA-MB-468,-20.4%
same,Activity,MCF7,6.12%
same,Activity,HCT-116,-51.46%
same,Activity,CCRF-CEM,67.84%
same,Activity,MDA-MB-231,-80.16%
same,Activity,HOP-62,-74.14%
same,Activity,NCI-H460,-51.32%
same,Activity,IGROV-1,-43.09%
same,Activity,NCI-H522,-74.3%
same,Activity,HT-29,-36.79%
same,Activity,SK-MEL-28,-52.79%
same,Activity,SK-MEL-2,-51.69%
same,Activity,LOX IMVI,-52.24%
same,Activity,PC-3,-62.3%
same,Activity,NCI-H226,-61.74%
same,Activity,SNB-19,-68%
same,Activity,SNB-75,-55.13%
same,Activity,UACC-257,-47.9%
same,Activity,HCC 2998,-80.86%
same,Activity,K562,17.9%
same,Activity,M14,-30.74%
same,Activity,HOP-92,-66.2%
same,Activity,OVCAR-5,-59.68%
same,Activity,ACHN,-43.53%
same,Activity,MDA-MB-435,-70.83%
same,Activity,UACC-62,-82.14%
same,Activity,RXF 393,-62.07%
same,Activity,CAKI-1,-78.63%
same,Activity,SR,19%
same,Activity,SK-OV-3,-9.16%
same,Activity,HL-60(TB),2.22%

# Source: ChEMBL document CHEMBL1153245, “A profile of the in vitro anti-tumor activity of imidazolium-based ionic liquids” (2010)
